These results are taken from US9079866B2, “Flap modulators” (JANSSEN PHARMACEUTICA NV, priority 2013, dated 2015).

One assay addresses human FLAP (Homo sapiens (Human), UniProt P20292). The assay is described as follows: FLAP binding assay (HTRF format). The conditions noted are these: wild type FLAP, HTRF format. The procedure, abridged:
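Samples were run in duplicate on each of two plates and the plate results averaged. Read-out is the HTRF signal ratio.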
In general terms: Time-resolved FRET reads energy transfer from a long-lived donor to a nearby acceptor.

In assay [1] the test system is leukotriene pathway in human whole blood (LTB4 levels). The assay is described as follows: Human whole blood assay (A23187-stimulated LTB4). The format is cell-based. Particulars: Homo sapiens, human whole blood diluted 1:1, A23187-stimulated; read-out: LTB4 IC50 1:1. The method in brief:
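Compounds are pre-incubated 15 min at 37° Celsius in RPMI-diluted (1:1) heparinised whole blood before a 30 min A23187 stimulus (7 μg/mL). Plasma LTB4 is read by immunoassay kit, with IC50 calculated from a 4-parameter equation.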

pIC50, pKi: −log10 of the molar value. Where a name gives a salt, the structure may show the parent alone.

Chain of human FLAP (P20292 whole entry): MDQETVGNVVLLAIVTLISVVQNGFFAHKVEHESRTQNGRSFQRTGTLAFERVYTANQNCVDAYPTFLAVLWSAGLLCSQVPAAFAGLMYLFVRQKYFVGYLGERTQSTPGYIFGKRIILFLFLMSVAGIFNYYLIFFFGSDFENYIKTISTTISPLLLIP

With `CC(C)(C)OC(=O)N1CCC(COc2ncccc2-c2ccc(-c3cnc(N)cn3)c(F)c2)C1` (stereo not shown) [Example 406, tert-Butyl 3-[({3-[4-(5-aminopyrazin-2-yl)-3-fluorophenyl]pyridin-2-yl}oxy)methyl]pyrrolidine-1-carboxylate], the pKi (usually −log10 of the Ki, conventionally taken in molar units) on human FLAP was 6.87. For the same compound, the negative logarithm of the IC50 (pIC50) (commonly −log10 of the IC50, conventionally taken in molar units) in assay [1] is 5.37.

At human FLAP, `CC(C)Oc1ncccc1-c1ccc(-c2cnc(N)nc2)c(F)c1` [Example 408, 5-{2-Fluoro-4-[2-(1-methylethoxy)pyridin-3-yl]phenyl}pyrimidin-2-amine] gave a negative logarithm of the Ki (pKi) of 6.89. The negative logarithm of the IC50 (pIC50) in assay [1] is 5.94.

`N#Cc1nc(-c2ccc(-c3ccccc3S(=O)(=O)C3CC3)cc2F)cnc1N` [Example 411, 3-Amino-6-[2′-(cyclopropylsulfonyl)-3-fluorobiphenyl-4-yl]pyrazine-2-carbonitrile] had a pKi at human FLAP of 7.44. The negative logarithm of the IC50 (pIC50) in assay [1] is 5.71.

Turning to `CC(C)(C)NS(=O)(=O)c1ccccc1-c1ccc(-c2ccc(N)nn2)c(F)c1` [Example 417, 4′-(6-Aminopyridazin-3-yl)-N-tert-butyl-3′-fluorobiphenyl-2-sulfonamide], at human FLAP, the pKi is 6.97. Also, in assay [1], the pIC50 is 6.14.

Take `CC(C)(C)NS(=O)(=O)c1ccccc1-c1ccc(-c2ccc3nccnc3c2)c(F)c1` [Example 420, N-tert-Butyl-3′-fluoro-4′-quinoxalin-6-ylbiphenyl-2-sulfonamide]: the negative-log Ki (pKi) on human FLAP was 7.07. For the same compound, the pIC50 in assay [1] is 5.48.

Compound `CC(C)(C)NS(=O)(=O)c1ccccc1-c1ccc(-c2ccc3[nH]cnc3c2)c(F)c1` [Example 422, 4′-(1H-Benzimidazol-5-yl)-N-tert-butyl-3′-fluorobiphenyl-2-sulfonamide] gave a pKi at human FLAP of 8.52. The pIC50 in assay [1] was 6.84.

In turn, `CNS(=O)(=O)c1ccccc1-c1ccc(-c2ccc3[nH]cnc3c2)c(F)c1` [Example 423, 4′-(1H-Benzimidazol-5-yl)-3′-fluoro-N-methylbiphenyl-2-sulfonamide] had a pKi at human FLAP of 6.55. Moreover, the pIC50 in assay [1] was 5.32.

Compound `CC(C)(C)NS(=O)(=O)c1ccccc1-c1ccc(-c2ccc3scnc3c2)c(F)c1` [Example 424, 4′-(1,3-Benzothiazol-5-yl)-N-tert-butyl-3′-fluorobiphenyl-2-sulfonamide] had a pKi on human FLAP of 8.00. Also, the pIC50 in assay [1] is below 5.00.

With `CC(C)(C)NS(=O)(=O)c1ccccc1-c1ccc(-c2cnc3cc[nH]c3c2)c(F)c1` [Example 425, N-tert-Butyl-3′-fluoro-4′-(1H-pyrrolo[3,2-b]pyridin-6-yl)biphenyl-2-sulfonamide], at human FLAP, the negative logarithm of the Ki (pKi) is 8.70. Further, the pIC50 in assay [1] is 6.95.

As to `CNS(=O)(=O)c1ccccc1-c1ccc(-c2cnc3[nH]ccc3c2)c(F)c1` [Example 426, 3′-Fluoro-N-methyl-4′-(1H-pyrrolo[2,3-b]pyridin-5-yl)biphenyl-2-sulfonamide], the pKi on human FLAP is 8.70. Moreover, the pIC50 in assay [1] is 7.14.

Consider `CC(C)(C)NS(=O)(=O)c1ccccc1-c1ccc(-c2ccc(N)cn2)c(F)c1` [Example 427, 4′-(5-Aminopyridin-2-yl)-N-tert-butyl-3′-fluorobiphenyl-2-sulfonamide], for which the negative logarithm of the Ki (pKi) on human FLAP was 7.27. Further, in assay [1], the negative-log IC50 (pIC50) is 5.80.

Take `CC(C)(C)NS(=O)(=O)c1ccccc1-c1ccc(-c2cnc(N)c(N)n2)c(F)c1` [Example 428, N-tert-Butyl-4′-(5,6-diaminopyrazin-2-yl)-3′-fluorobiphenyl-2-sulfonamide]: the negative logarithm of the Ki (pKi) at human FLAP was 8.40. In addition, the pIC50 in assay [1] is 8.40.

`CC(C)(C)NS(=O)(=O)c1ccccc1-c1ccc(-c2cnc3[nH]c(=O)[nH]c3n2)c(F)c1` [Example 429, N-tert-Butyl-3′-fluoro-4′-(2-oxo-2,3-dihydro-1H-imidazo[4,5-b]pyrazin-5-yl)biphenyl-2-sulfonamide]: the negative logarithm of the Ki (pKi) at human FLAP was 7.89. The pIC50 in assay [1] is 6.68.

Compound `CC(C)(C)NS(=O)(=O)c1ccccc1-c1ccc(-c2cnc3c(c2)CCN3)c(F)c1` [Example 431, N-tert-Butyl-4′-(2,3-dihydro-1H-pyrrolo[2,3-b]pyridin-5-yl)-3′-fluorobiphenyl-2-sulfonamide] showed a negative-log Ki (pKi) at human FLAP of 9.00. In assay [1], the pIC50 is 8.05.

On to `CC(C)(C)NS(=O)(=O)c1ccccc1-c1ccc(-c2cnc3[nH]cnc3c2)c(F)c1` [Example 432, N-tert-Butyl-3′-fluoro-4′-(3H-imidazo[4,5-b]pyridin-6-yl)biphenyl-2-sulfonamide], for which the pKi at human FLAP is 8.40. For the same compound, the negative-log IC50 (pIC50) in assay [1] was 7.72.

`COc1nc(-c2ccc(-c3ccccc3S(=O)(=O)NC(C)(C)C)cc2F)cnc1N` [Example 433, 4′-(5-Amino-6-methoxypyrazin-2-yl)-N-tert-butyl-3′-fluorobiphenyl-2-sulfonamide] had a pKi on human FLAP of 9.00. In addition, the pIC50 in assay [1] is 7.60.

At human FLAP, `CC(C)(C)NS(=O)(=O)c1ccccc1-c1ccc(-c2cnc(N)c(C#N)n2)c(F)c1` [Example 434, 4′-(5-Amino-6-cyanopyrazin-2-yl)-N-tert-butyl-3′-fluorobiphenyl-2-sulfonamide] showed a negative logarithm of the Ki (pKi) of 9.00. Moreover, in assay [1], the pIC50 was 7.44.

In turn, `CC(C)(C)NS(=O)(=O)c1ccccc1-c1ccc(-c2ncc(N)nc2C#N)c(F)c1` [Example 435, 4′-(5-Amino-3-cyanopyrazin-2-yl)-N-tert-butyl-3′-fluorobiphenyl-2-sulfonamide] had a pKi on human FLAP of 8.05. The negative logarithm of the IC50 (pIC50) in assay [1] was 6.78.

On to `CC(C)(C)NS(=O)(=O)c1ccccc1-c1ccc(-c2cnc(N)cc2C#N)c(F)c1` [Example 436, 4′-(6-Amino-4-cyanopyridin-3-yl)-N-tert-butyl-3′-fluorobiphenyl-2-sulfonamide], for which, at human FLAP, the pKi is 6.51. Besides, the pIC50 in assay [1] was 5.48.

`CC(C)(C)NS(=O)(=O)c1ccccc1-c1ccc(-c2ccc(N)nc2C#N)c(F)c1` [Example 437, 4′-(6-Amino-2-cyanopyridin-3-yl)-N-(tert-butyl)-3′-fluoro-[1,1′-biphenyl]-2-sulfonamide] had a pKi on human FLAP of 7.64. The pIC50 in assay [1] was 6.42.

For the compound `CC(C)(C)NS(=O)(=O)c1ccccc1-c1ccc(-c2nnc(N)s2)c(F)c1` [Example 438, 4′-(5-Amino-1,3,4-thiadiazol-2-yl)-N-(tert-butyl)-3′-fluoro-[1,1′-biphenyl]-2-sulfonamide], the pKi on human FLAP is 9.00. The negative logarithm of the IC50 (pIC50) in assay [1] is 7.77.

On human FLAP, `C[C@H](CO)NS(=O)(=O)c1ccccc1-c1ccc(-c2nnc(N)s2)c(F)c1` [Example 439, (R)-4′-(5-Amino-1,3,4-thiadiazol-2-yl)-3′-fluoro-N-(1-hydroxypropan-2-yl)-[1,1′-biphenyl]-2-sulfonamide] showed a negative logarithm of the Ki (pKi) of 7.20. Besides, the negative logarithm of the IC50 (pIC50) in assay [1] is 6.52.

`Nc1nnc(-c2ccc(-c3ccccc3S(=O)(=O)N3CCS(=O)(=O)CC3)cc2F)s1` [Example 440, 4-((4′-(5-Amino-1,3,4-thiadiazol-2-yl)-3′-fluoro-[1,1′-biphenyl]-2-yl)sulfonyl)thiomorpholine 1,1-dioxide] showed a pKi at human FLAP of 7.51. In addition, the negative-log IC50 (pIC50) in assay [1] was 6.67.

Compound `CC(C)(C)NS(=O)(=O)c1ccccc1-c1ccc(-c2cnc(N)c(Cl)n2)c(F)c1` [Example 441, 4′-(5-Amino-6-chloropyrazin-2-yl)-N-tert-butyl-3′-fluorobiphenyl-2-sulfonamide] had a negative logarithm of the Ki (pKi) at human FLAP of 9.00. For the same compound, the pIC50 in assay [1] is 8.22.

For the compound `CC(C)(C)NS(=O)(=O)c1ccccc1-c1ccc(-c2cnc(N)c(Br)n2)c(F)c1` [Example 442, 4′-(5-Amino-6-bromopyrazin-2-yl)-N-tert-butyl-3′-fluorobiphenyl-2-sulfonamide], the negative-log Ki (pKi) at human FLAP is 9.00. Also, in assay [1], the negative-log IC50 (pIC50) was 8.05.

The compound `N#Cc1nc(N)ccc1-c1ccc(-c2ccccc2S(=O)(=O)C2CC2)cc1F` [Example 443, 6-Amino-3-(2′-(cyclopropylsulfonyl)-3-fluoro-[1,1′-biphenyl]-4-yl)picolinonitrile] had a negative-log Ki (pKi) on human FLAP of 6.46. Besides, the negative-log IC50 (pIC50) in assay [1] was 5.48.

Consider `CC(C)(C)NS(=O)(=O)c1ccccc1-c1ccc(-c2ccn3cnnc3c2)c(F)c1` [Example 444, N-tert-Butyl-3′-fluoro-4′-[1,2,4]triazolo[4,3-a]pyridin-7-ylbiphenyl-2-sulfonamide], for which the pKi on human FLAP was 6.74. Further, the pIC50 in assay [1] is below 5.00.

Consider `Cc1nc(-c2ccc(-c3ccccc3S(=O)(=O)NC(C)(C)C)cc2F)cnc1N` [Example 445, 4′-(5-Amino-6-methylpyrazin-2-yl)-N-tert-butyl-3′-fluorobiphenyl-2-sulfonamide], for which the pKi on human FLAP was 9.00. Further, in assay [1], the negative logarithm of the IC50 (pIC50) is 8.10.

For `CC(C)(C)NS(=O)(=O)c1ccccc1-c1ccc(-c2cnc3[nH]cnc3n2)c(F)c1` [Example 447, N-tert-Butyl-3′-fluoro-4′-(1H-imidazo[4,5-b]pyrazin-5-yl)biphenyl-2-sulfonamide], at human FLAP, the negative-log Ki (pKi) is 8.52. Also, the pIC50 in assay [1] was 6.84.

For the compound `CC(C)(C)NS(=O)(=O)c1ccccc1-c1ccc(-c2cnc(N)c(N)c2)c(F)c1` [Example 448, N-tert-Butyl-4′-(5,6-diaminopyridin-3-yl)-3′-fluorobiphenyl-2-sulfonamide], the negative-log Ki (pKi) at human FLAP is 8.00. Also, the pIC50 in assay [1] is 6.95.

The compound `CNS(=O)(=O)c1ccccc1-c1ccc(-c2cnc(N)c(C)n2)c(F)c1` [Example 449, 4′-(5-Amino-6-methylpyrazin-2-yl)-3′-fluoro-N-methylbiphenyl-2-sulfonamide] showed a pKi at human FLAP of 7.66. In addition, the negative-log IC50 (pIC50) in assay [1] is 7.10.

Take `CC(C)(C)NS(=O)(=O)c1ccccc1-c1ccc(-c2cnc(N)c(C#N)c2)c(F)c1` [Example 450, 4′-(6-Amino-5-cyanopyridin-3-yl)-N-tert-butyl-3′-fluorobiphenyl-2-sulfonamide trifluoroacetic acid salt]: on human FLAP, the negative-log Ki (pKi) was 7.13. Besides, the pIC50 in assay [1] is 6.47.
